Measurements from patent US11053281B2, “Peptoid affinity ligands” (MIKE-ANN, LLC, priority 2016, dated 2021).
Like-named read-outs stand apart in the source and are kept apart here. *1 amine or outer side, *2 acyl side, *3 side chain or, on linkers, in order; H or OH if unused. Where a SMILES comes first, the peptide text is derived from it. [ ]: non-standard residue; d: D form. Gly(N(CH2)2(3-indolyl)) = O=C(O)CNCCc1c[nH]c2ccccc12; N(2-mercaptoethyl)Gly = O=C(CN(CCS[*:3])[*:1])[*:2]; N(4-hydroxyphenethyl)Gly = O=C(O)CNCCc1ccc(O)cc1; Gly(N-(CH2)3-guanidino) = N=C(N)NCCCNCC(=O)O; NGly(CH2(3-pyridyl)) = O=C(O)CNCc1cccnc1; N(CH2CH2COOH)Gly = O=C(O)CCNCC(=O)O; Gly(N(CH2)3NH2) = NCCCNCC(=O)O; Cysteamide = C(CS[*:3])N[*:1]; X1 = CSCCN(CC(=O)[*:2])[*:1]; Nphe = O=C(O)CNCc1ccccc1; NPrGly = CCCNCC(=O)O; Nme = COCCNCC(=O)O; Sar = CNCC(=O)O

System: polyclonal human IgG
Experiment: Adsorption isotherm of peptoid affinity resins against polyclonal human IgG
Format: binding
Parameters: Qmax: unit not given here
Conditions: for Qmax: maximum capacity (qmax) of resin from isotherm fit; for Kd: peptoid ligand conjugated to chromatographic resin, IgG in PBS, hyperbola fit of isotherm, Kd given in molar, read-out: Kd x 10^−6
Method: The affinity for the peptoid-resin combinations was determined by measuring the adsorption isotherm of each resin against polyclonal human IgG (Pakimna et al., J Applied Sci., 12(11): 1136-1141, 2012). Briefly, 0.050 mL of 50% resin slurry was pipetted into 6 individual wells of a 96-well filter plate (0.45 micron, PVDF, Harvard Apparatus). The resin was washed with 2×250 μL PBS using a vacuum manifold. To an individual well, 0.25 mL of a human polyclonal IgG solution at different concentrations (10, 5, 2.5, 1.25, 0.625, and 0.3125 mg/mL) was added. The resin/IgG suspension was agitated gently on a rocking table for 30 minutes. The fluid was then collected via vacuum, and the resin was washed with 0.25 mL of PBS. The filtrate and wash were then analyzed by the BCA assay to determine the residual IgG concentration relative to the starting concentration of the solution.
The equilibrium concentrations were then used to determine the capacity of the resin at each IgG concentration using the following formula: q=Volumesample×(Initial Concentration−Equilibrium Concentration)/Volumeresin
A plot of q versus equilibrium concentration was generated and the data fit with a hyperbola to determine the affinity constant (Kd) and the maximum capacity (qmax) according to the below formula, where C=the equilibrium concentration of antibody in solution: q=qmax×C/(kd+C) Typical adsorption isotherm is shown in FIG. 2. Tabulated Kd and qmax data is found in Table 2.

Kd (Table 2) | Kd (Table 3) | Structure (SMILES) | Qmax (Table 2) | Qmax (Table 3)
9.3 µM |  | CCCNCC(=O)N(CCc1c[nH]c2ccccc12)CC(=O)NCC(=O)N(CCCNC(=N)N)CC(=O)N(CCc1c[nH]c2ccccc12)CC(=O)N(CC(=O)NCCS)Cc1cccnc1 [Ligand 12-65-9] | 76 | 
2.7 µM |  | COCCNCC(=O)N(CCc1c[nH]c2ccccc12)CC(=O)N(CCc1c[nH]c2ccccc12)CC(=O)N(CCCN)CC(=O)N(CC(=O)N(CCC(=O)O)CC(=O)N(C)CC(=O)NCCS)Cc1cccnc1 [Ligand 12-73-2] (H-[Nme][Gly(N(CH2)2(3-indolyl))][Gly(N(CH2)2(3-indolyl))][Gly(N(CH2)3NH2)][NGly(CH2(3-pyridyl))][N(CH2CH2COOH)Gly][Sar]-Cysteamide) | 74 | 
3.9 µM |  | CCCN(CC(=O)N(CCc1c[nH]c2ccccc12)CC(=O)NCCS)C(=O)CN(CCc1c[nH]c2ccccc12)C(=O)CN(C)C(=O)CN(CCc1c[nH]c2ccccc12)C(=O)CN(Cc1cccnc1)C(=O)CNCCCN [Ligand 12-73-4] (H-[Gly(N(CH2)3NH2)][NGly(CH2(3-pyridyl))][Gly(N(CH2)2(3-indolyl))][Sar][Gly(N(CH2)2(3-indolyl))][NPrGly][Gly(N(CH2)2(3-indolyl))]-Cysteamide) | 72 | 
 | 3.2 µM | CCCN(CC(=O)N(C)CC(=O)N(CCc1c[nH]c2ccccc12)CC(=O)N(CCC)CC(=O)N(CCc1c[nH]c2ccccc12)CC(=O)NCCS)C(=O)CN(CCCNC(=N)N)C(=O)CNCCc1c[nH]c2ccccc12 [Ligand 12-76-3] (H-[Gly(N(CH2)2(3-indolyl))][Gly(N-(CH2)3-guanidino)][NPrGly][Sar][Gly(N(CH2)2(3-indolyl))][NPrGly][Gly(N(CH2)2(3-indolyl))]-Cysteamide) |  | 87
5.7 µM |  | CCCN(CC(=O)N(CCc1c[nH]c2ccccc12)CC(=O)NCCS)C(=O)CN(CCc1c[nH]c2ccccc12)C(=O)CN(C)C(=O)CN(CCc1c[nH]c2ccccc12)C(=O)CN(Cc1cccnc1)C(=O)CNCCCNC(=N)N [Ligand 12-76-4] (H-[Gly(N-(CH2)3-guanidino)][NGly(CH2(3-pyridyl))][Gly(N(CH2)2(3-indolyl))][Sar][Gly(N(CH2)2(3-indolyl))][NPrGly][Gly(N(CH2)2(3-indolyl))]-Cysteamide) | 89 | 
 | 3.6 µM | CCCNCC(=O)N(CC(=O)N(CC(=O)N(C)CC(=O)N(CCc1c[nH]c2ccccc12)CC(=O)N(CCC)CC(=O)N(CCc1c[nH]c2ccccc12)CC(=O)NCCS)Cc1ccccc1)Cc1cccnc1 [Ligand 12-79-4] (H-[NPrGly][NGly(CH2(3-pyridyl))][Nphe][Sar][Gly(N(CH2)2(3-indolyl))][NPrGly][Gly(N(CH2)2(3-indolyl))]-Cysteamide) |  | 69
 | 6.1 µM | CCCN(CC(=O)N(CCc1c[nH]c2ccccc12)CC(=O)NCCS)C(=O)CN(CCc1c[nH]c2ccccc12)C(=O)CN(C)C(=O)CN(CCCNC(=N)N)C(=O)CN(CCOC)C(=O)CNCc1cccnc1 [Ligand 15-28-5] (H-[NGly(CH2(3-pyridyl))][Nme][Gly(N-(CH2)3-guanidino)][Sar][Gly(N(CH2)2(3-indolyl))][NPrGly][Gly(N(CH2)2(3-indolyl))]-Cysteamide) |  | 61
 | 66 µM | CCCN(CC(=O)N(CCc1c[nH]c2ccccc12)CC(=O)NCCS)C(=O)CN(CCc1c[nH]c2ccccc12)C(=O)CN(C)C(=O)CN(Cc1cccnc1)C(=O)CN(CCOC)C(=O)CNCc1cccnc1 [Ligand 15-91-1] (H-[NGly(CH2(3-pyridyl))][Nme][NGly(CH2(3-pyridyl))][Sar][Gly(N(CH2)2(3-indolyl))][NPrGly][Gly(N(CH2)2(3-indolyl))]-Cysteamide) |  | 80
 | 6 µM | CCCN(CC(=O)N(CCc1c[nH]c2ccccc12)CC(=O)NCCS)C(=O)CN(CCc1c[nH]c2ccccc12)C(=O)CN(C)C(=O)CN(CCC(=O)O)C(=O)CN(Cc1cccnc1)C(=O)CNCCCN [Ligand 15-91-4] (H-[Gly(N(CH2)3NH2)][NGly(CH2(3-pyridyl))][N(CH2CH2COOH)Gly][Sar][Gly(N(CH2)2(3-indolyl))][NPrGly][Gly(N(CH2)2(3-indolyl))]-Cysteamide) |  | 32
 | 5.5 µM | CCCN(CC(=O)N(CCc1c[nH]c2ccccc12)CC(=O)NCCS)C(=O)CN(CCc1c[nH]c2ccccc12)C(=O)CN(C)C(=O)CN(Cc1cccnc1)C(=O)CN(CCSC)C(=O)CNCc1cccnc1 [Ligand 16-64-2] (H-[NGly(CH2(3-pyridyl))][N(2-mercaptoethyl)Gly](Me)[NGly(CH2(3-pyridyl))][Sar][Gly(N(CH2)2(3-indolyl))][NPrGly][Gly(N(CH2)2(3-indolyl))]-Cysteamide) |  | 49
 | 28 µM | CSCCN(CC(=O)N(CCCN)CC(=O)N(CC(=O)N(CCC(=O)O)CC(=O)N(C)CC(=O)NCCS)Cc1cccnc1)C(=O)CN(Cc1ccccc1)C(=O)CNCc1cccnc1 [Ligand 16-64-4] (H-[NGly(CH2(3-pyridyl))][Nphe][X1][Gly(N(CH2)3NH2)][NGly(CH2(3-pyridyl))][N(CH2CH2COOH)Gly][Sar]-Cysteamide) |  | 33
 | 18 µM | CCCN(CC(=O)N(CCCN)CC(=O)N(CC(=O)N(CCC(=O)O)CC(=O)N(C)CC(=O)NCCS)Cc1cccnc1)C(=O)CN(CCC(=O)O)C(=O)CNCc1cccnc1 [Ligand 16-75-1] (H-[NGly(CH2(3-pyridyl))][N(CH2CH2COOH)Gly][NPrGly][Gly(N(CH2)3NH2)][NGly(CH2(3-pyridyl))][N(CH2CH2COOH)Gly][Sar]-Cysteamide) |  | 33
4.3 µM |  | NC(=O)NCCCN(CC(=O)N(CCc1c[nH]c2ccccc12)CC(=O)N(CC(=O)NCCS)Cc1cccnc1)C(=O)CNCCc1c[nH]c2ccccc12 [Ligand 16-75-5] | 44 | 
3.6 µM |  | NC(=O)NCCCN(CC(=O)N(CCc1c[nH]c2ccccc12)CC(=O)NCCS)C(=O)CN(CCc1c[nH]c2ccccc12)C(=O)CNCc1cccnc1 [Ligand 16-77-1] | 61 | 
4 µM |  | COCCN(CC(=O)NCCS)C(=O)CN(CCc1c[nH]c2ccccc12)C(=O)CN(CCc1c[nH]c2ccccc12)C(=O)CNCCCN [Ligand 16-77-3] (H-[Gly(N(CH2)3NH2)][Gly(N(CH2)2(3-indolyl))][Gly(N(CH2)2(3-indolyl))][Nme]-Cysteamide) | 47 | 
4.3 µM |  | COCCNCC(=O)N(CCc1c[nH]c2ccccc12)CC(=O)N(CCc1c[nH]c2ccccc12)CC(=O)N(CCCN)CC(=O)NCCS [Ligand 16-77-4] (H-[Nme][Gly(N(CH2)2(3-indolyl))][Gly(N(CH2)2(3-indolyl))][Gly(N(CH2)3NH2)]-Cysteamide) | 44 | 
 | 3.6 µM | COCCN(CC(=O)N(CCCN)CC(=O)N(CCc1c[nH]c2ccccc12)CC(=O)NCCS)C(=O)CNCc1cccnc1 [Ligand 16-81-6] (H-[NGly(CH2(3-pyridyl))][Nme][Gly(N(CH2)3NH2)][Gly(N(CH2)2(3-indolyl))]-Cysteamide) |  | 45
 | 4.8 µM | COCCN(CC(=O)N(CC(=O)NCCS)Cc1cccnc1)C(=O)CN(CCCN)C(=O)CNCCc1c[nH]c2ccccc12 [Ligand 16-81-7] (H-[Gly(N(CH2)2(3-indolyl))][Gly(N(CH2)3NH2)][Nme][NGly(CH2(3-pyridyl))]-Cysteamide) |  | 39
 | 2.5 µM | O=C(CN(CCc1c[nH]c2ccccc12)C(=O)CN(Cc1cccnc1)C(=O)CN(CCc1c[nH]c2ccccc12)C(=O)CNCc1cccnc1)NCCS [Ligand 16-82-2] |  | 41
2.5 µM |  | NCCCNCC(=O)N(CC(=O)N(CCc1c[nH]c2ccccc12)CC(=O)N(CCc1c[nH]c2ccccc12)CC(=O)NCCS)Cc1cccnc1 [Ligand 16-82-3] (H-[Gly(N(CH2)3NH2)][NGly(CH2(3-pyridyl))][Gly(N(CH2)2(3-indolyl))][Gly(N(CH2)2(3-indolyl))]-Cysteamide) | 47 | 
7.7 µM |  | CN(CC(=O)NCCS)C(=O)CN(CCC(=O)O)C(=O)CN(Cc1cccnc1)C(=O)CN(CCCNC(=N)N)C(=O)CN(CCCNC(=N)N)C(=O)CN(CCc1ccc(O)cc1)C(=O)CNCCc1ccc(O)cc1 [Ligand 18-28-1] (H-[N(4-hydroxyphenethyl)Gly][N(4-hydroxyphenethyl)Gly][Gly(N-(CH2)3-guanidino)][Gly(N-(CH2)3-guanidino)][NGly(CH2(3-pyridyl))][N(CH2CH2COOH)Gly][Sar]-Cysteamide) | 41 | 
2.6 µM |  | CCCN(CC(=O)N(CCc1c[nH]c2ccccc12)CC(=O)NCCS)C(=O)CN(CCc1c[nH]c2ccccc12)C(=O)CN(C)C(=O)CN(Cc1cccnc1)C(=O)CN(CCc1c[nH]c2ccccc12)C(=O)CNCCCNC(=N)N [Ligand 18-28-6] (H-[Gly(N-(CH2)3-guanidino)][Gly(N(CH2)2(3-indolyl))][NGly(CH2(3-pyridyl))][Sar][Gly(N(CH2)2(3-indolyl))][NPrGly][Gly(N(CH2)2(3-indolyl))]-Cysteamide) | 42 | 
